Where two headings read alike, the source gives them in different places.
Biological target: T1, hFASN enzyme (full length) (Homo sapiens, UniProt P49327)
T1 construct: 10 μL hFASN enzyme (full length, 300 ng, purified in house); made in house
Experiment: Fatty Acid Synthase (FASN) inhibition scintillation proximity assay
Type: biochemical
Conditions: for IC50: read-out: Human FASN pIC50 (converted)
Experimental: In this assay, inhibition of FASN activity is measured using ^3H-acetyl-CoA and malonyl-CoA as substrates. ^3H-Acetyl CoA is converted to ^3H-palmitate through a series of reactions by the FASN protein, which contains 7 functional domains and carries out 7 enzymatic reactions to ultimately produce ^3H-palmitate. The assay principle is based upon the fact that ^3H-acetyl-CoA is hydrophilic and the end product, ^3H-palmitate is hydrophobic.
10 μL assay buffer (100 mM KH2PO4 pH 7.5, 1 mM DTT) (20 μL in blanks) was added to a 384-well white optiplate plate (Perkin Elmer). 0.9 μL test compound (at concentrations of 30 μM, 10 μM, 3 μM, 1 μM, 0.30 μM, 0.10 μM, 0.03 μM and 0.01 μM)/DMSO and 10 μL hFASN enzyme (full length, 300 ng, purified in house) or 10 μL assay buffer was added to the wells. […] The reaction was stopped by adding 20 μL Streptavidin coupled imaging beads (25 mg/ml). After incubation for 30 minutes at room temperature in the dark, the 384 well plate was centrifuged at 1500 rpm for 3 minutes and was measured after at least 24 hrs by the LEADseeker™, measuring emission using a 610±20 nm pass filter.
where mLC and mHC were the means of the low control wells and high control wells on the plate, after manual exclusion of outliers. A plot of Controlmin versus test compound concentration was fitted to a 4-parameter logistic curve using a non-linear least squares regression method.

[1] = read-out: Human FASN % inhibition @ 10 μM, 10 μM test compound

T1 sequence (P49327 whole entry): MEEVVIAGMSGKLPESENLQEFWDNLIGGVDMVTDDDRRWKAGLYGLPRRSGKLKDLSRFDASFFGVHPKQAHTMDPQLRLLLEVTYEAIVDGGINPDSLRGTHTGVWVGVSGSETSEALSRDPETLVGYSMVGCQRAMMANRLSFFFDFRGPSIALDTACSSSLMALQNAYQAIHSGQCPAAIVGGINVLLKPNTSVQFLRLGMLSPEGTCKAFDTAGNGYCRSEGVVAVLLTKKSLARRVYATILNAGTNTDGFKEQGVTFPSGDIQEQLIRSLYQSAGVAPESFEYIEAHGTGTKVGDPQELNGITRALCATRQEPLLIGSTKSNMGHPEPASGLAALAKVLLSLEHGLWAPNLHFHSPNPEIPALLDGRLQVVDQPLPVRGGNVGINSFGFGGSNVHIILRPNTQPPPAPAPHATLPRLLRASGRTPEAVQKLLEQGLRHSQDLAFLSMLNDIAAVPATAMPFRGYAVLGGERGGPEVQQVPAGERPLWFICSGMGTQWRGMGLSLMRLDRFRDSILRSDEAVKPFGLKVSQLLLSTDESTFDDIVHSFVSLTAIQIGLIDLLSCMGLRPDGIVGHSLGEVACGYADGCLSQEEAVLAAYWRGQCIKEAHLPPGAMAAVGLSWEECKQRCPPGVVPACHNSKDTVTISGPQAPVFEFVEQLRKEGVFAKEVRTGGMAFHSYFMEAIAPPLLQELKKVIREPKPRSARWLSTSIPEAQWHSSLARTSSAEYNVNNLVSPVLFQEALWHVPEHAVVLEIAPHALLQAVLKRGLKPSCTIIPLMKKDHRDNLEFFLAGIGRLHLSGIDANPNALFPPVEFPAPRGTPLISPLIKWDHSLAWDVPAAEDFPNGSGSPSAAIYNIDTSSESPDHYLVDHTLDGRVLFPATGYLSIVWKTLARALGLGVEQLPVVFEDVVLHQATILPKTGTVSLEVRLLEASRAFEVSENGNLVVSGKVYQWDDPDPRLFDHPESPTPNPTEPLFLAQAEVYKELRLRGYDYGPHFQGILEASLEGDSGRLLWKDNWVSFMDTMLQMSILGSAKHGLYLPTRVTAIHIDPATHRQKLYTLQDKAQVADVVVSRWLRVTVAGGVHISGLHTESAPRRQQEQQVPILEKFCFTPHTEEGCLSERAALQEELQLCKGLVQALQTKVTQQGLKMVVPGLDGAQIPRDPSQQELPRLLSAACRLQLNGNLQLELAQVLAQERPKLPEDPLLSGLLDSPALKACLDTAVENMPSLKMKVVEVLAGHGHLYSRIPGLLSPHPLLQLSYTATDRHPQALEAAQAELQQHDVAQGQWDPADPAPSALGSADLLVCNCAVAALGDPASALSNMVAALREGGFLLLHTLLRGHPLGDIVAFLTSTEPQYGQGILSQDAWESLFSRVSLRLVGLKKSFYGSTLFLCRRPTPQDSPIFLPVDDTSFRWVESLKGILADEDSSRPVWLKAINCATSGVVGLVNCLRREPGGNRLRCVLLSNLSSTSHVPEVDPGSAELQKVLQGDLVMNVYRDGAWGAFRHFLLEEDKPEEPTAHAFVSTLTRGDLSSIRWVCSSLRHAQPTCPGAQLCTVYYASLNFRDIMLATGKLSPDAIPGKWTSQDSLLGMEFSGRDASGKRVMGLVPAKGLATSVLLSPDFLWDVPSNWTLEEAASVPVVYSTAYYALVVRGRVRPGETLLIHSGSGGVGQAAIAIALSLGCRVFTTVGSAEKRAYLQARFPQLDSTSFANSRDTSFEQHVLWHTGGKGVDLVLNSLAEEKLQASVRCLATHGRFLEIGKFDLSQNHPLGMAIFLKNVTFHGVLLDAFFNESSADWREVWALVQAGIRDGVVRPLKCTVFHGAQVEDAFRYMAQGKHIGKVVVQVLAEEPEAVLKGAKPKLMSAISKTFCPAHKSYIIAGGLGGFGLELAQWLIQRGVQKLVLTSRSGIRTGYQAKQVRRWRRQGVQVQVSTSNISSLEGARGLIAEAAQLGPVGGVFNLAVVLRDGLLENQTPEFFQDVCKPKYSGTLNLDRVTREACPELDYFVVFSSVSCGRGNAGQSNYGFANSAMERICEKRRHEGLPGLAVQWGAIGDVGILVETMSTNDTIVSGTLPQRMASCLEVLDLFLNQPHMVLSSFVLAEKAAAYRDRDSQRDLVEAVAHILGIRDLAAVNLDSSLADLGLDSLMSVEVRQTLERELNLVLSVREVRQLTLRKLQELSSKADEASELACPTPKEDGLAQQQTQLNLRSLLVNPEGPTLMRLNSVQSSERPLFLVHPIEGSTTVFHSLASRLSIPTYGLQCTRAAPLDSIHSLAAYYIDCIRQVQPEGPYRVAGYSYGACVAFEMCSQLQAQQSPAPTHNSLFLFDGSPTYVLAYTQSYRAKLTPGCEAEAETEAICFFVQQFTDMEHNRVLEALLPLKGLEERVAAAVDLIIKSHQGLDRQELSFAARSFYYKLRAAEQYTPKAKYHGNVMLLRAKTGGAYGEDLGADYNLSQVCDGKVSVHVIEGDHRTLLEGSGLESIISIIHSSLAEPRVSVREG

| inhibition at 10 µM [1] [%] | IC50 [µM] | SMILES | inhibition at 10 µM (read-out: Human FASN % inhibition @ 10 μM) [%] |
| --- | --- | --- | --- |
| 90.7 | 1.17 | CC(C)C(=O)N1CCC2(CC1)N=C(c1ccc(-c3ccc4occc4c3)cc1)N(CC1CN(C(=O)C3CC3)C1)C2=O [compound 129, 2-[4-(1-Benzofuran-5-yl)phenyl]-3-{[1-(cyclopropylcarbonyl)azetidin-3-yl]methyl}-8-(2-methylpropanoyl)-1,3,8-triazaspiro[4.5]dec-1-en-4-one] |  |
| 74 | 3.8 | O=C(C1CC1)N1CC(CN2C(=O)C3(CCNCC3)N=C2c2ccc(-c3ccc4occc4c3)cc2)C1 [compound 130, 2-[4-(1-Benzofuran-5-yl)phenyl]-3-{[1-(cyclopropylcarbonyl)azetidin-3-yl]methyl}-1,3,8-triazaspiro[4.5]dec-1-en-4-one] |  |
| 52.1 | 8.91 | Cn1ncc2cc(-c3ccc(C4=NC5(CCNCC5)C(=O)N4CC4CN(C(=O)C5CC5)C4)cc3)ccc21 [compound 131, 3-{[1-(Cyclopropylcarbonyl)azetidin-3-yl]methyl}-2-[4-(1-methyl-1H-indazol-5-yl)phenyl]-1,3,8-triazaspiro[4.5]dec-1-en-4-one] |  |
| 83.7 | 1.7 | O=C(C1CC1)N1CC(CN2C(=O)C3(CCNCC3)N=C2c2ccc(-c3ccc4cnccc4c3)cc2)C1 [compound 132, 3-{[1-(Cyclopropylcarbonyl)azetidin-3-yl]methyl}-2-(4-isoquinolin-6-ylphenyl)-1,3,8-triazaspiro[4.5]dec-1-en-4-one] |  |
| 78.9 | 2.45 | CC(C)C(=O)N1CCC2(CC1)N=C(c1ccc(-c3ccc4c(cnn4C)c3)cc1)N(CC1CN(C(=O)C3CC3)C1)C2=O [compound 135, 3-{[1-(Cyclopropylcarbonyl)azetidin-3-yl]methyl}-2-[4-(1-methyl-1H-indazol-5-yl)phenyl]-8-(2-methylpropanoyl)-1,3,8-triazaspiro[4.5]dec-1-en-4-one] |  |
| 77.7 | 2.95 | CN(C)CC(=O)N1CCC2(CC1)N=C(c1ccc(-c3ccc4c(cnn4C)c3)cc1)N(CC1CN(C(=O)C3CC3)C1)C2=O [compound 136, 3-{[1-(Cyclopropylcarbonyl)azetidin-3-yl]methyl}-8-(N,N-dimethylglycyl)-2-[4-(1-methyl-1H-indazol-5-yl)phenyl]-1,3,8-triazaspiro[4.5]dec-1-en-4-one] |  |
| 112 | 0.174 | CC(C)C(=O)N1CCC2(CC1)N=C(c1ccc(-c3ccc4c(cnn4C)c3)cc1)N(C[C@@H]1CCN(C(=O)C3CC3)C1)C2=O [compound 139, (R)-3-((1-(cyclopropanecarbonyl)pyrrolidin-3-yl)methyl)-8-isobutyryl-2-(4-(1-methyl-1H-indazol-5-yl)phenyl)-1,3,8-triazaspiro[4.5]dec-1-en-4-one] |  |
| 114 | 0.224 | Cn1ncc2cc(-c3ccc(C4=NC5(CCN(C(=O)C6CC6)CC5)C(=O)N4C[C@@H]4CCN(C(=O)C5CC5)C4)cc3)ccc21 [compound 140, 8-(Cyclopropylcarbonyl)-3-{[(3R)-1-(cyclopropylcarbonyl)pyrrolidin-3-yl]methyl}-2-[4-(1-methyl-1H-indazol-5-yl)phenyl]-1,3,8-triazaspiro[4.5]dec-1-en-4-one] |  |
| 110 | 0.251 | CN(C)CC(=O)N1CCC2(CC1)N=C(c1ccc(-c3ccc4c(cnn4C)c3)cc1)N(C[C@@H]1CCN(C(=O)C3CC3)C1)C2=O [compound 141, 3-{[(3R)-1-(Cyclopropylcarbonyl)pyrrolidin-3-yl]methyl}-8-(N,N-dimethylglycyl)-2-[4-(1-methyl-1H-indazol-5-yl)phenyl]-1,3,8-triazaspiro[4.5]dec-1-en-4-one] |  |
| 119 | 0.0692 | CN(C)CC(=O)N1CCC2(CC1)N=C(c1ccc(-c3ccc4cnccc4c3)cc1)N(C[C@@H]1CCN(C(=O)C3CC3)C1)C2=O [compound 142, 3-{[(3R)-1-(Cyclopropylcarbonyl)pyrrolidin-3-yl]methyl}-8-(N,N-dimethylglycyl)-2-(4-isoquinolin-6-ylphenyl)-1,3,8-triazaspiro[4.5]dec-1-en-4-one] |  |

The next lines start with the compound.

| SMILES | inhibition at 10 µM [1] [%] | IC50 [µM] | inhibition at 10 µM (read-out: Human FASN % inhibition @ 10 μM) [%] |
| --- | --- | --- | --- |
| O=C(C1CC1)N1CC[C@@H](CN2C(=O)C3(CCCC3)N=C2c2ccc(-c3ccc(-c4nn[nH]n4)cc3)cc2)C1 [compound 91, 3-{[(3R)-1-(Cycloprropylcarbonyl)pyrrolidin-3-yl]methyl}-2-[4′-(2H-tetrazol-5-yl)biphenyl-4-yl]-1,3-diazaspiro[4.4]non-1-en-4-one] | 21.3 | > 10 |  |
| NC(=O)CN1CC[C@@H](CN2C(=O)C3(CCN(Cc4ccccc4)CC3)N=C2c2ccc(-c3ccc4occc4c3)cc2)C1 [compound 95, 2-[(3R)-3-({2-[4-(1-Benzofuran-5-yl)phenyl]-8-benzyl-4-oxo-1,3,8-triazaspiro[4.5]dec-1-en-3-yl}methyl)pyrrolidin-1-yl]acetamide] | 24.4 | > 10 |  |
| O=C(CN1CC[C@@H](CN2C(=O)C3(CCN(Cc4ccccc4)CC3)N=C2c2ccc(-c3ccc4occc4c3)cc2)C1)C1CC1 [compound 96, 2-[4-(1-Benzofuran-5-yl)phenyl]-8-benzyl-3-{[(3R)-1-(2-cyclopropyl-2-oxoethyl)pyrrolidin-3-yl]methyl}-1,3,8-triazaspiro[4.5]dec-1-en-4-one] | 71.2 | 5.01 |  |
| Cc1ccc(-c2ccc(C3=NC4(CC4)C(=O)N3CC3CCN(C(=O)C4CC4)CC3)cc2)cc1 [compound 97, 6-{[1-(Cyclopropylcarbonyl)piperidin-4-yl]methyl}-5-(4′-methylbiphenyl-4-yl)-4,6-diazaspiro[2.4]hept-4-en-7-one] | 58.7 | 5.62 |  |
| COc1ccccc1-c1ccc(C2=NC3(CC3)C(=O)N2CC2CCN(C(=O)C3CC3)CC2)cc1 [compound 98, 6-{[1-(Cyclopropylcarbonyl)piperidin-4-yl]methyl}-5-(2′-methoxybiphenyl-4-yl)-4,6-diazaspiro[2.4]hept-4-en-7-one] | 35.1 | > 10 |  |
| COc1ccc(-c2ccc(C3=NC4(CC4)C(=O)N3CC3CCN(C(=O)C4CC4)CC3)cc2)cc1 [compound 99] | 61.4 | 4.68 |  |
| O=C(C1CC1)N1CC[C@@H](CN2C(=O)C3(CC3)N=C2c2ccc(-c3ccc(C(F)(F)F)cc3)cc2)C1 [compound 104, 6-{[(3R)-1-(Cyclopropylcarbonyl)pyrrolidin-3-yl]methyl}-5-[4′-(trifluoromethyl)biphenyl-4-yl]-4,6-diazaspiro[2.4]hept-4-en-7-one] | 71.7 | 3.24 |  |
| O=C(C1CC1)N1CCC(CN2C(=O)C3(CC3)N=C2c2ccc(-c3ccc(C(F)(F)F)cc3)cc2)CC1 [compound 107, 6-{[1-(Cyclopropylcarbonyl)piperidin-4-yl]methyl}-5-[4′-(trifluoromethyl)biphenyl-4-yl]-4,6-diazaspiro[2.4]hept-4-en-7-one] | 10.6 | > 10 |  |
| O=C(C1CC1)N1CCC(CN2C(=O)C3(CC3)N=C2c2ccc(-c3cccc(O)c3)cc2)CC1 [compound 108, 6-{[1-(Cyclopropylcarbonyl)piperidin-4-yl]methyl}-5-(3′-hydroxybiphenyl-4-yl)-4,6-diazaspiro[2.4]hept-4-en-7-one] | 83.8 | 1.51 |  |
| O=C(C1CC1)N1CCC(CN2C(=O)C3(CC3)N=C2c2ccc(-c3ccc(Cl)cc3)cc2)CC1 [compound 109, 5-(4′-Chlorobiphenyl-4-yl)-6-{[1-(cyclopropylcarbonyl)piperidin-4-yl]methyl}-4,6-diazaspiro[2.4]hept-4-en-7-one] | 62.1 | 5.13 |  |
| O=C(C1CC1)N1CCC(CN2C(=O)C3(CC3)N=C2c2ccc(-c3ccc(F)cc3)cc2)CC1 [compound 110, 6-{[1-(Cyclopropylcarbonyl)piperidin-4-yl]methyl}-5-(4′-fluorobiphenyl-4-yl)-diazaspiro[2.4]hept-4-en-7-one] |  | > 10 | 32.6 |
| Cc1cccc(-c2ccc(C3=NC4(CC4)C(=O)N3CC3CCN(C(=O)C4CC4)CC3)cc2)c1 [compound 111, 6-{[1-(Cyclopropylcarbonyl)piperidin-4-yl]methyl}-5-(3′-methylbiphenyl-4-yl)-4,6-diazaspiro[2.4]hept-4-en-7-one] | 62.2 | 4.37 |  |
| N#Cc1cccc(-c2ccc(C3=NC4(CC4)C(=O)N3C[C@@H]3CCN(C(=O)C4CC4)C3)cc2)c1 [compound 123, 4′-(6-{[(3R)-1-(Cyclopropylcarbonyl)pyrrolidin-3-yl]methyl}-7-oxo-4,6-diazaspiro[2.4]hept-4-en-5-yl)biphenyl-3-carbonitrile] | 81.5 | 1.26 |  |
| O=C(C1CC1)N1CC[C@@H](CN2C(=O)C3(CC3)N=C2c2ccc(-c3ccc(OC(F)(F)F)cc3)cc2)C1 [compound 125, 6-{[(3R)-1-(Cyclopropylcarbonyl)pyrrolidin-3-yl]methyl}-5-[4′-(trifluoromethoxy)biphenyl-4-yl]-4,6-diazaspiro[2.4]hept-4-en-7-one] | 64.6 | 3.98 |  |
